The values that follow come from paper PMC8687465 (bioRxiv, 2023).

This test concerns FLUV (A/WSN/33). The format is cell-based, influenza A/WSN/33.

SMILES strings stand for the structures.

For `CCOC(=O)C1=C[C@@H](OC(CC)CC)[C@H](NC(C)=O)[C@@H](N)C1` [Oseltamivir], the “activity against FLUV after 7 passages with compound (resistance development)” value is “lost activity by passage 7”.
